These results are taken from patent US20260115197A1, “TREATMENT COMPOSITION FOR INHIBITING SYSTEMIC SCLEROSIS VIMENTIN MUTANT PROTEIN ACTIVITY BY USING STAT6 INHIBITOR” (THE CATHOLIC UNIVERSITY OF KOREA INDUSTRY-ACADEMIC …, priority 2022, published 2026).

In test [1] the test system is human dermal fibroblast line. Kind of test: Expression of fibrosis genes in TGF-β-treated fibroblasts, real-time PCR. It is filed as cell-based. The conditions noted are these: with 10 ng/ml TGF-β, 24 hours; vs TGF-β alone. How it is done:
In order to identify the effect of STAT6 inhibition on systemic sclerosis of the present disclosure, inhibition of fibrosis genes of fibroblasts was identified. Specifically, a human dermal fibroblast line was treated with 10 ng/ml of TGF-β and […] of an STAT6 inhibitor and then cultured for 24 hours. Thereafter, the expression of fibrosis factors, TGF-β, Col1a1 (Collagen, type I, alpha 1), and α-SMA 10 (alpha smooth muscle actin), was identified by real-time PCR.

The subject of test [2] is pSTAT6 and CD8 positive T cells. Kind of test: pSTAT6 and CD8 positive T cells in skin and lung tissues of systemic sclerosis mouse, confocal microscopy. It is filed as in vivo, B6 mouse. The conditions noted are these: 10 mg/kg orally daily, vs Vehicle group.
Test [3] relates to systemic sclerosis animal model. Kind of test: Pulmonary fibrosis in systemic sclerosis animal model, H&E staining. It is filed as in vivo, B6 mouse. The conditions noted are these: 10 mg/kg orally daily; BLM-induced; vs Vehicle group. The method, then:
(§1) To determine whether the STAT6 inhibitor of the present disclosure alleviated systemic sclerosis, a systemic sclerosis animal model was constructed. Specifically, a 2×2 cm area on the nape of the neck of the B6 mouse was shaved using a clipper, and then subcutaneously injected with 100 μL of PBS containing 50 μg of bleomycin (BLM) daily for 2 weeks to induce systemic sclerosis. One week after the start of BLM administration, 200 μL of vehicle solution (10% DMSO, 40% PEG300, 5% tween 80 and 45% Saline) containing the STAT6 inhibitor at a concentration of 10 mg/kg was orally administered daily. Thereafter, the blood from the mouse was collected on week 1 and week 5 after induction of systemic sclerosis, and the activity of M2 macrophages capable of inducing fibrosis from the collected blood was analyzed using flow cytometry. As a control group, a wild-type mouse (WT) and a Vehicle group that was induced with systemic sclerosis but not treated with a drug were used.
It has been identified whether the STAT6 inhibition of the present disclosure inhibited pulmonary fibrosis in systemic sclerosis. Specifically, a lung tissue was obtained from the mouse sacrificed in the Example 4-1 above, and subjected to H&E staining to determine the histological score for pulmonary fibrosis.

Test [4] concerns Vimentin antigen-specific systemic sclerosis animal model. Kind of test: Skin fibrosis and CSV expression in Vimentin antigen-specific systemic sclerosis animal model. It is filed as in vivo, SKG mouse. As to conditions: 10 mg/kg subcutaneously three times a week until week 5; vs vim SSc group. The method, then:
In systemic sclerosis, Vimentin increased the disease symptom activity of systemic sclerosis, and thus, the effect of the STAT6 inhibitor was evaluated in a Vimentin antigen-specific systemic sclerosis animal model. Specifically, systemic sclerosis was induced by immunizing a 8-week-old SKG mouse with a Vimentin protein as an antigen and then subcutaneously injecting 100 μL of Bleomycin (BLM) six times a week for two weeks. Thereafter, on week 2 of systemic sclerosis induction, the mouse was secondary immunized with the Vimentin protein, and then subcutaneously injected with the STAT6 inhibitor of the present disclosure three times a week at a concentration of 10 mg/kg until week 5 from the starting of the experiment. Thereafter, at the end point of the experiment, the mouse was humanely sacrificed, and skin and lung tissues were obtained, and then the thickness of the skin dermal layer was identified by H&E staining, […] The specific experimental process was illustrated in FIG. 9, and as a control group, a Vimentin antigen-specific systemic sclerosis animal model (vim SSc group) with increased disease symptom activity by a Vimentin antigen was used.

Test [5] deals with cell surface Vimentin (CSV) and fibrosis factors aSMA, Col1, IL-17. Kind of test: Fibrosis factors and cell surface Vimentin in skin tissue of systemic sclerosis mouse, immunohistochemical staining. It is filed as in vivo, B6 mouse. The conditions noted are these: 10 mg/kg orally daily, vs Vehicle group. How it is done: as §1
In autoimmune diseases, it has been reported that Vimentin played an important role in cell interaction and the function of the immune system, and mutated or natural-type Vimentin was involved in the inflammatory responses and the pathogenesis of various autoimmune diseases (Autoimmun Rev. 2018 September: 17 (9): 926-934. doi: 10.1016/j.autrev.2018.04.004. Epub 2018 Jul. 17.), and thus, even in systemic sclerosis, the effect of the STAT6 inhibitor on the expression pattern of cell surface Vimentin (CSV) was also identified. Specifically, the expression of fibrosis factors aSMA, Col1, and IL-17 and CSV-positive cells in the skin tissue obtained in Example 4-1 was identified by immunohistochemical staining.

The next test concerns spleen single cells. Kind of test: Control of fibrosis-related immunocytes in TGF-β-treated spleen single cells, flow cytometry. The conditions noted are these: 10 nM, with 10 ng/ml TGF-β, 72 hours; vs TGF-β alone. It is filed as cell-based, B6 mouse. How it is done:
In order to identify an effect of inhibiting signal transducer and activator of transcription 6 (STAT6) on systemic sclerosis of the present disclosure, the control effect of immunocytes related to fibrosis was identified. Specifically, spleen single cells were obtained from a B6 mouse, treated with 10 ng/ml of transforming growth factor-β (TGF-β) and 10 nM of a STAT6 inhibitor (YM-341619, Chemical Formula 1), and then cultured for 72 hours. The expression of profibrotic T cells, M2 macrophages, and Treg related to systemic sclerosis was analyzed by flow cytometry. In addition, the expression ratio of M2 macrophages and M1 macrophages was identified to identify the control of immunocytes. As a control group, an untreated control group (Nil) and a group treated with TGF-β alone were used.

The subject of test [6] is systemic sclerosis animal model. Kind of test: Skin fibrosis in systemic sclerosis animal model, H&E staining. It is filed as in vivo, B6 mouse. The conditions noted are these: 10 mg/kg orally daily; BLM-induced; vs Vehicle group. How it is done: as §1
To determine whether the STAT6 inhibitor of the present disclosure alleviated systemic sclerosis, inhibition of skin fibrosis was identified. […]

In another test the test system is M2 macrophages. Kind of test: M2 macrophage activity in blood of bleomycin-induced systemic sclerosis animal model, flow cytometry. It is filed as in vivo, B6 mouse. As to conditions: 10 mg/kg orally daily; BLM-induced; vs Vehicle group. The method, then: as §1
(In flow cytometry, cells or beads pass a laser one at a time.)

Test [7] has as its system cell surface Vimentin (CSV) and fibrosis factors aSMA, Col1, IL-17. Kind of test: Fibrosis factors and cell surface Vimentin in lung tissue of systemic sclerosis mouse, immunohistochemical staining. It is filed as in vivo, B6 mouse. The conditions noted are these: 10 mg/kg orally daily, vs Vehicle group. How it is done: as §1
It was identified whether the STAT6 inhibition of the present disclosure inhibited cell surface Vimentin in the tissue. Specifically, the expression of fibrosis factors aSMA, Col1, and IL-17 and CSV-positive cells in the lung tissue obtained in Example 4-2 was identified by immunohistochemical staining.

The subject of test [8] is CD103 and CD8 positive cells (CD8 TRM). Kind of test: IL-17 or IFNγ expression CD103 and CD8 positive cells (CD8 TRM) in skin of Vimentin antigen-specific systemic sclerosis animal model, confocal microscope. It is filed as in vivo, SKG mouse. As to conditions: 10 mg/kg subcutaneously three times a week; vs vim SSc group. How it is done: In systemic sclerosis, Vimentin increased the disease symptom activity of systemic sclerosis, and thus, the effect of the STAT6 inhibitor was evaluated in a Vimentin antigen-specific systemic sclerosis animal model. Specifically, systemic sclerosis was induced by immunizing a 8-week-old SKG mouse with a Vimentin protein as an antigen and then subcutaneously injecting 100 μL of Bleomycin (BLM) six times a week for two weeks. Thereafter, on week 2 of systemic sclerosis induction, the mouse was secondary immunized with the Vimentin protein, and then subcutaneously injected with the STAT6 inhibitor of the present disclosure three times a week at a concentration of 10 mg/kg until week 5 from the starting of the experiment. Thereafter, at the end point of the experiment, the mouse was humanely sacrificed, and skin and lung tissues were obtained, and then the thickness of the skin dermal layer was identified by H&E staining, and the expression of CSV in the lung tissue was identified by immunohistochemical staining. The specific experimental process was illustrated in FIG. 9, and as a control group, a Vimentin antigen-specific systemic sclerosis animal model (vim SSc group) with increased disease symptom activity by a Vimentin antigen was used. […]

Take `NC(=O)c1cnc(Nc2ccc(N3CCOCC3)cc2)nc1NCc1c(F)ccc(F)c1F` [STAT6 inhibitor, YM-341619]: in test [1], the “expression of fibrosis gene Col1a1” value is reported as “significantly decreased”, the “expression of fibrosis gene TGF-β” value was “significantly decreased” and the “expression of fibrosis gene α-SMA” value is “significantly decreased”. Besides, in [2] (lung), the “expression of pSTAT6 and CD8 positive T cells in lung tissue” value is “significantly reduced”. Besides, in test [2] (skin), the “expression of pSTAT6 and CD8 positive T cells in skin tissue” value is “significantly reduced”. Also, the “histological score for pulmonary fibrosis” value in test [3] was “significantly reduced”. For the same compound, in [4], the “expression of CSV in the skin tissue” value is on record as “significantly reduced” and the “thickness of the skin dermis layer” value is listed as “significantly reduced”. In test [5], the “expression of Col1 in skin tissue” value was “significantly reduced”, the “expression of IL-17 in skin tissue” value is “significantly reduced”, the “expression of aSMA in skin tissue” value is “significantly reduced” and the “number of CSV positive cells in skin tissue” value is “significantly reduced”. Further, in the test with spleen single cells, the M2/M1 expression ratio result is “significantly reduced”; the “expression of M2 macrophages” value is given as “significantly reduced”; the “expression of Treg” value was “significantly increased”; the “expression of pro-fibrosis T cells (IL-4+ T cells and IL-4+ and IL-17+ T cells)” value was “significantly reduced”. Besides, in test [6], the “thickness of the skin dermal layer” value is recorded as “significantly reduced”. Further, the “activity of M2 macrophages capable of inducing fibrosis in blood” value in the test with M2 macrophages was “significantly reduced”. For the same compound, in test [7], the “expression of Col1 in lung tissue” value is “significantly reduced”, the “expression of IL-17 in lung tissue” value is given as “significantly reduced”, the “expression of aSMA in lung tissue” value is recorded as “significantly reduced” and the “number of CSV positive cells in lung tissue” value is “significantly reduced”. Moreover, in test [8], the “IFNγ expression CD103 and CD8 positive cells in skin tissue” value was “no change”; the “IL-17 expression CD103 and CD8 positive cells (CD8 TRM) in skin tissue” value was “significantly reduced”.
